Mortality data for 13 compounds are collected here from article PMC9574050, “Design, synthesis, and insecticidal activity of a novel series of flupyrimin analogs bearing 1-aryl-1H-pyrazol-4-yl subunits” (Frontiers in Chemistry, 2022).

The term mortality denotes the share of the test organisms that died.

A value given as a limit tells only on which side of the number the result lay.

Common to all, as to type: in vivo
The subject of assay [1] is Helicoverpa armigera. In words: Insecticidal activity against Helicoverpa armigera (soaking method). The note with it: Helicoverpa armigera, 48 h; 400 μg/mL; 2nd instar larvae; counted 2 days later; read-out: Mortality rate (%) H. armigera. The source says:
(§1) Preparation of test agent. Dissolve accurately weighed tested compound in DMF to prepare 1% mother liquor, and then dilute it with distilled water containing 0.1% Tween-80 to corresponding concentrations for later use.
Insecticidal activity against Helicoverpa armigera. The soaking method was adopted ([Yang et al., 2022]). After soaking a proper amount of corn leaves for 10 s, they were placed in a plastic Petri dish with filter paper and dried naturally in the shade. Ten larvae of the 2nd instar H. armigera were attached to each dish and placed in an observation room at 26°C with light (16/8 h). The result was counted 2 days later, and the no-response insect body when it was lightly touched with a brush was regarded as dead. Each treatment was repeated 3 times, and DMF without the tested compound was used as a blank control.
(§2) The insecticidal activities of the test compounds against the abovementioned five insects were calculated by the following formula: P1=(K/N)×100, (1) P2=(Pt−P0)/(1−P0)×100, (2) where P1 is the mortality rate; K is the dead insect number; N is the total number of experimental insects; P2 is the corrected mortality rate; Pt is the mortality rate of treatment; P0 is the mortality rate of CK. If the mortality rate of CK is less than 5%, without the required correction, and if the mortality rate of CK is between 5 and 20%, P2 should be calculated according to formula II.

In assay [2] the test system is Chilo suppressalis. Nature of the assay: Insecticidal activity against Chilo suppressalis (soaking method). The note with it: 96 h, 400 μg/mL, 3rd instar larvae, counted 4 days later, read-out: Mortality rate (%) C. suppressalis.
Source text: as §1
Insecticidal activity against Chilo suppressalis ([Huang et al., 2022]). The soaking method was adopted. The Zizania latifolia slices were soaked in a tested solution for 10 s, then taken out, and placed in a plastic Petri dish with filter paper to naturally dry in the shade. […] The result was counted 4 days later, and the no-response insect body when it was lightly touched with a brush was regarded as dead. Each treatment was repeated three times, and DMF without the tested compound was used as a blank control.
as §2

The test system of assay [3] is Aphis craccivora. Nature of the assay: Insecticidal activity against Aphis craccivora (Potter spray tower). The settings on record: 400 μg/mL, counted 24 h later, read-out: Mortality rate (%) A. craccivora. As for the experimental part: as §1
Insecticidal activity against Aphis craccivora ([Liu et al., 2022]). About 30 nymphs of alfalfa aphid were placed on a horsebean leaf dish, and then 2.5 ml of the tested agent was sprayed with Potter spray tower. After treatment, they were cultured in an observation room at 20–22°C. The result was counted 24 h later, and the no-response insect body when it was lightly touched with tweezers was regarded as dead. Each treatment was repeated three times, and DMF without the tested compound was used as a blank control.
as §2

Assay [4] relates to Nilaparvata lugens. In words: Insecticidal activity against Nilaparvata lugens (Potter spray tower). The note with it: 24 h, 400 μg/mL, 3rd instar nymphae, 1 day after treatment, read-out: Mortality rate (%) N. lugens.
Source text: as §1
Insecticidal activity against Nilaparvata lugens ([Ghareeb et al., 2021]). The seedlings with two leaves and one heart were placed in a Petri dish with a bottom diameter of 3 cm and covered with white sand. After the 3rd instar nymphae of N. lugens were stunned by CO2, about 15 nymphae were received in each dish, and then 2.5 ml of the tested agent was sprayed with Potter spray tower. The mortality of N. lugens was investigated 1 day after the treatment. Each treatment was repeated three times, and DMF without the tested compound was used as a blank control.
as §2

The test system of assay [5] is Plutella xylostella. Nature of the assay: Insecticidal activity against Plutella xylostella (soaking method). The note with it: Plutella xylostella, 48 h, 2nd instar larvae, counted 2 days later, read-out: Mortality rate (%) P. xylostella; for mortality at 25 µg/mL: 25 μg/mL; for mortality at 100 µg/mL: 100 μg/mL; for mortality at 400 µg/mL: 400 μg/mL.
Source text: as §1
Insecticidal activity against Plutella xylostella ([Yang et al., 2021]). The soaking method was adopted. After soaking a proper amount of radish leaves for 10 s, it was placed in a plastic Petri dish with filter paper and dried naturally in the shade. Each dish was inoculated with 10 2nd instar P. xylostella larvae and placed in an observation room at 22°C with light (16/8 h). The result was counted 2 days later, and the no-response insect body when it was lightly touched with a brush was regarded as dead. Each treatment was repeated three times, and DMF without the tested compound was used as a blank control.
as §2

As for `COCC(=O)/N=c1\ccccn1Cc1cnn(-c2cccc(F)c2)c1C(F)(F)F` [Compound B3, (E)-N-(1-((1-(3-fluorophenyl)-5-(trifluoromethyl)-1H-pyrazol-4-yl)methyl)pyridin-2(1H)-ylidene)-2-methoxyacetamide], the mortality at 400 µg/mL in assay [1] is 0%; in assay [2], 0%; in assay [3], 0%; in assay [4], 0%; in assay [5], 100%. Moreover, the mortality at 25 µg/mL in assay [5] was over 70%. Also, the mortality at 100 µg/mL in assay [5] stood at 100%.
Turning to `COCC(=O)/N=c1\ccccn1Cc1cnn(-c2ccc(C(F)(F)F)cc2)c1C(F)(F)F` [Compound B5, (E)-2-methoxy-N-(1-((5-(trifluoromethyl)-1-(4-(trifluoromethyl)phenyl)-1H-pyrazol-4-yl)methyl)pyridin-2(1H)-ylidene)acetamide], the mortality at 400 µg/mL amounted to 0% in assay [1]; 0% in assay [2]; 0% in assay [3]; 0% in assay [4]; 100% in assay [5]. The mortality at 25 µg/mL in assay [5] stood at 0%. In addition, in assay [5], the mortality at 100 µg/mL stood at 100%.
Take `COCC(=O)/N=c1\ccccn1Cc1cnn(-c2cccc(Cl)c2)c1C(F)F` [Compound B6, (E)-N-(1-((1-(3-chlorophenyl)-5-(difluoromethyl)-1H-pyrazol-4-yl)methyl)pyridin-2(1H)-ylidene)-2-methoxyacetamide]: the mortality at 400 µg/mL in assay [1] was 0%; in assay [2], 0%; in assay [3], 0%; in assay [4] it was 0%; in assay [5] it was 100%. In assay [5], the mortality at 25 µg/mL came out at 0%. Besides, the mortality at 100 µg/mL in assay [5] was 83.3%.
Consider `COCC(=O)/N=c1\ccccn1Cc1cnn(-c2cccc(F)c2)c1C(F)F` [Compound B7, (E)-N-(1-((5-(difluoromethyl)-1-(3-fluorophenyl)-1H-pyrazol-4-yl)methyl)pyridin-2(1H)-ylidene)-2-methoxyacetamide], for which the mortality at 400 µg/mL is 0% in assay [1]; 0% in assay [2]; 0% in assay [3]; 0% in assay [4]; 66.7% in assay [5].
For the compound `COCC(=O)/N=c1\ccccn1Cc1cnn(-c2ccc(F)cc2)c1C(F)F` [Compound B8, (E)-N-(1-((5-(difluoromethyl)-1-(4-fluorophenyl)-1H-pyrazol-4-yl)methyl)pyridin-2(1H)-ylidene)-2-methoxyacetamide], the mortality at 400 µg/mL in assay [1] came out at 0%; in assay [2], 0%; in assay [3], 0%; in assay [4], 0%; in assay [5] it was 56.7%.
For `O=C(/N=c1\ccccn1Cc1cnn(-c2ccccc2)c1C(F)(F)F)C(F)(F)C(F)(F)F` [Compound C1, (E)-2,2,3,3,3-pentafluoro-N-(1-((1-phenyl-5-(trifluoromethyl)-1H-pyrazol-4-yl)methyl)pyridin-2(1H)-ylidene)propanamide], the mortality at 400 µg/mL in assay [1], in assay [2], in assay [3], in assay [4] and in assay [5] was 0% in each case.
`O=C(/N=c1\ccccn1Cc1cnn(-c2ccccc2Cl)c1C(F)(F)F)C(F)(F)C(F)(F)F` [Compound C2, (E)-N-(1-((1-(2-chlorophenyl)-5-(trifluoromethyl)-1H-pyrazol-4-yl)methyl)pyridin-2(1H)-ylidene)-2,2,3,3,3-pentafluoropropanamide]: the mortality at 400 µg/mL in assay [1], in assay [2], in assay [3], in assay [4] and in assay [5] was 0% throughout.
Take `O=C(/N=c1\ccccn1Cc1cnn(-c2cccc(F)c2)c1C(F)(F)F)C(F)(F)C(F)(F)F` [Compound C3, (E)-2,2,3,3,3-pentafluoro-N-(1-((1-(3-fluorophenyl)-5-(trifluoromethyl)-1H-pyrazol-4-yl)methyl)pyridin-2(1H)-ylidene)propanamide]: the mortality at 400 µg/mL amounted to 0% in assay [1]; 0% in assay [2]; 0% in assay [3]; 0% in assay [4]; 76.7% in assay [5].
For the compound `O=C(/N=c1\ccccn1Cc1cnn(-c2ccc(Cl)cc2)c1C(F)(F)F)C(F)(F)C(F)(F)F` [Compound C4, (E)-N-(1-((1-(4-chlorophenyl)-5-(trifluoromethyl)-1H-pyrazol-4-yl)methyl)pyridin-2(1H)-ylidene)-2,2,3,3,3-pentafluoropropanamide], the mortality at 400 µg/mL is 0% in assay [1]; 0% in assay [2]; 0% in assay [3]; 0% in assay [4]; 73.3% in assay [5].
Take `O=C(/N=c1\ccccn1Cc1cnn(-c2cccc(Cl)c2)c1C(F)F)C(F)(F)C(F)(F)F` [Compound C6, (E)-N-(1-((1-(3-chlorophenyl)-5-(difluoromethyl)-1H-pyrazol-4-yl)methyl)pyridin-2(1H)-ylidene)-2,2,3,3,3-pentafluoropropanamide]: the mortality at 400 µg/mL was found to be 0% in assay [1]; 0% in assay [2]; 0% in assay [3]; 0% in assay [4]; 60% in assay [5].
Consider `O=C(/N=c1\ccccn1Cc1cnn(-c2cccc(F)c2)c1C(F)F)C(F)(F)C(F)(F)F` [Compound C7, (E)-N-(1-((5-(difluoromethyl)-1-(3-fluorophenyl)-1H-pyrazol-4-yl)methyl)pyridin-2(1H)-ylidene)-2,2,3,3,3-pentafluoropropanamide], for which the mortality at 400 µg/mL in assay [1] stood at 0%; in assay [2], 40%; in assay [3], 0%; in assay [4] it was 0%; in assay [5], 66.7%.
Take `Cn1cc(C(=O)/N=c2\ccccn2Cc2cnn(-c3ccccc3)c2C(F)(F)F)c(C(F)F)n1` [Compound D1, (E)-3-(difluoromethyl)-1-methyl-N-(1-((1-phenyl-5-(trifluoromethyl)-1H-pyrazol-4-yl)methyl)pyridin-2(1H)-ylidene)-1H-pyrazole-4-carboxamide]: the mortality at 400 µg/mL in assay [1] is 0%; in assay [2], 0%; in assay [3], 0%; in assay [4] it was 0%; in assay [5], 46.7%.
With `Cn1cc(C(=O)/N=c2\ccccn2Cc2cnn(-c3ccccc3Cl)c2C(F)(F)F)c(C(F)F)n1` [Compound D2, (E)-N-(1-((1-(2-chlorophenyl)-5-(trifluoromethyl)-1H-pyrazol-4-yl)methyl)pyridin-2(1H)-ylidene)-3-(difluoromethyl)-1-methyl-1H-pyrazole-4-carboxamide], the mortality at 400 µg/mL was determined as 0% in assay [1]; 0% in assay [2]; 0% in assay [3]; 0% in assay [4]; 43.3% in assay [5].
